Reference: paper PMC5725799, “Comparative binding properties of the tau PET tracers THK5117, THK5351, PBB3, and T807 in postmortem Alzheimer brains” (Alzheimer's Research & Therapy, 2017)

Tests used:
tau [1] = target: tau (Homo sapiens, UniProt P10636); test: Competition binding assay with ^3H-THK5351 in postmortem hippocampus brain homogenates; conditions: vs ^3H-THK5351 1.5 nM, AD hippocampus homogenate; read-out: Ki2 (high-affinity site)
Procedure: Postmortem brain tissues from three patients with AD and three healthy control subjects were used for the in vitro binding assays. All the brain tissue, which came from the Netherlands Brain Bank, had been homogenized in PBS containing a protease/phosphatase inhibitor (see Table 1).
After 2-h incubation at room temperature, the binding assay was terminated by filtration through glass fiber filters presoaked for at least 3 h in 0.3% polyethylenimine. To do so, the filters were rinsed and filtered three times using cold binding buffer, and then the radiation on the filter was quantified using a Beckman Coulter scintillation counter. The data for the regional binding distribution studies were analyzed using Prism version 7.0 software for Mac (GraphPad Software Inc., La Jolla, CA, USA), and two-way analysis of variance with multiple comparisons was performed.

tau [2] = test: ^3H-THK5351 competition autoradiography with unlabeled THK5351, T807 and deprenyl; assay type: binding, human; conditions: cortical areas
Procedure: Six adjacent sections from AD1 (see Table 1) were used for competition autoradiography of unlabeled THK5351, T807, and deprenyl. After reaching room temperature, the frozen sections were preincubated for 10 minutes with PBS (pH 7.4) and then incubated for 1 h at room temperature with ^3H-THK5351 (1.5 nM) in addition to 10 μM unlabeled THK5351; 10 μM unlabeled deprenyl; 10 μM unlabeled T807; 10 μM unlabeled THK5351 and 10 μM unlabeled deprenyl; 10 μM unlabeled T807 and 10 μM unlabeled deprenyl. The sections were rinsed three times in cold buffer for 5 minutes, followed by a quick dip in cold distilled water. Nonspecific binding was determined using 10 μM unlabeled THK5351 or 10 μM unlabeled THK5117. […]
(§1) For all the autoradiography studies, the regions of interest were drawn manually on the autoradiogram using multigauge software and were used for the semiquantitative analyses. Photostimulated luminescence per square millimeter (PSL/mm^2) was transformed to picomoles per cubic millimeter using a transformation factor that took into account the resolution of the image, the pixel value for the concentration of ligand, and the thickness of the sections: (PSL/mm^2 value)/([pixel value per pmol] × [(resolution/1000)^2] × [cryosection thickness]/1000).

tau [3] = test: ^11C-THK5351 autoradiography and competition on large frozen AD brain sections; assay type: binding, human; design: Total Binding / NSP Binding: unit not given here
Procedure: (§2) Adjacent sections were used for autoradiography with ^11C-THK5351, ^11C-PBB3, and ^18F-T807. The frozen sections were allowed to reach room temperature, incubated for 30 minutes at room temperature with ^11C-THK5351 (0.4–0.56 nM; specific activity 356–532 GBq/μmol) or ^11C-PBB3 (0.25–0.34 nM; specific activity 442–794 GBq/μmol) or for 55 minutes at room temperature with ^18F-T807 (0.04 nM; specific activity 281 GBq/μmol). We used 10 μM unlabeled THK5351, 10 μM unlabeled PBB3, and 10 μM unlabeled T807 to determine the extent of nonspecific binding for each tracer. The sections were rinsed three times for 5 minutes each with cold binding buffer, followed by a quick dip in cold distilled water. The sections were dried and exposed for 1 h (for ^11C-THK5351 and ^11C-PBB3) or for 3 h (^18 F-T807) on a phosphor imaging plate and then read using the BAS-2500 phosphor imager.
as §1

tau [4] = test: ^18F-T807 autoradiography and competition on large frozen AD brain sections; assay type: binding, human; design: Total Binding / NSP Binding: unit not given here; conditions: vs Unlabelled T807
Procedure: as §2, §1

[5] = AD1, Basal ganglia, vs Unlabelled T807
[6] = AD1, Basal ganglia, vs Unlabelled THK5351
[7] = AD1, Frontal cortex, vs Unlabelled T807
[8] = AD1, Frontal cortex, vs Unlabelled THK5351
[9] = AD1, Insula, vs Unlabelled T807
[10] = AD1, Insula, vs Unlabelled THK5351
[11] = AD1, Temporal cortex, vs Unlabelled T807
[12] = AD1, Temporal cortex, vs Unlabelled THK5351
[13] = AD2, Basal ganglia, vs Unlabelled T807
[14] = AD2, Basal ganglia, vs Unlabelled THK5351
[15] = AD2, Frontal cortex, vs Unlabelled T807
[16] = AD2, Frontal cortex, vs Unlabelled THK5351
[17] = AD2, Insula, vs Unlabelled T807
[18] = AD2, Insula, vs Unlabelled THK5351
[19] = AD2, Temporal cortex, vs Unlabelled T807
[20] = AD2, Temporal cortex, vs Unlabelled THK5351
[21] = AD3, Basal ganglia, vs Unlabelled T807
[22] = AD3, Basal ganglia, vs Unlabelled THK5351
[23] = AD3, Frontal cortex, vs Unlabelled T807
[24] = AD3, Frontal cortex, vs Unlabelled THK5351
[25] = AD3, Insula, vs Unlabelled T807
[26] = AD3, Insula, vs Unlabelled THK5351
[27] = AD3, Temporal cortex, vs Unlabelled T807
[28] = AD3, Temporal cortex, vs Unlabelled THK5351

tau (Homo sapiens, UniProt P10636), sequence (P10636 623-695 limits assumed): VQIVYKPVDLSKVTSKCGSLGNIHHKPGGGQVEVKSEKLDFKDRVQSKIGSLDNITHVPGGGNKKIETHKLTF

CNc1ccc(-c2ccc3cc(OC[C@H](O)CF)ccc3n2)cn1 [THK5351]
Ki (tau [1]): 16 nM | ^3H-THK5351 binding displaced (tau [2]): 70–80%

[11CH3]Nc1ccc(-c2ccc3cc(OC[C@H](O)CF)ccc3n2)cn1 [^11C-THK5351, (S)-1-fluoro-3-(2-(6-([^11C]methylamino)pyridin-3-yl)quinolin-6-yloxy)propan-2-ol]
% of specific binding (tau [3]; [5]): 41% | NSP Binding (tau [3]; [5]): 10866 | Specific Binding (tau [3]; [5]): 7578 | Total Binding (tau [3]; [5]): 18444 | % of specific binding (tau [3]; [6]): 40% | NSP Binding (tau [3]; [6]): 7577 | Specific Binding (tau [3]; [6]): 5118 | Total Binding (tau [3]; [6]): 12694 | % of specific binding (tau [3]; [7]): 24% | NSP Binding (tau [3]; [7]): 15579 | Specific Binding (tau [3]; [7]): 4789 | Total Binding (tau [3]; [7]): 20368 | % of specific binding (tau [3]; [8]): 40% | NSP Binding (tau [3]; [8]): 8920 | Specific Binding (tau [3]; [8]): 5917 | Total Binding (tau [3]; [8]): 14837 | % of specific binding (tau [3]; [9]): 25% | NSP Binding (tau [3]; [9]): 13255 | Specific Binding (tau [3]; [9]): 4421 | Total Binding (tau [3]; [9]): 17677 | % of specific binding (tau [3]; [10]): 33% | NSP Binding (tau [3]; [10]): 8376 | Specific Binding (tau [3]; [10]): 4085 | Total Binding (tau [3]; [10]): 12461 | % of specific binding (tau [3]; [11]): 14% | NSP Binding (tau [3]; [11]): 14662 | Specific Binding (tau [3]; [11]): 2328 | Total Binding (tau [3]; [11]): 16990 | % of specific binding (tau [3]; [12]): 29% | NSP Binding (tau [3]; [12]): 8202 | Specific Binding (tau [3]; [12]): 3386 | Total Binding (tau [3]; [12]): 11587 | % of specific binding (tau [3]; [13]): 38% | NSP Binding (tau [3]; [13]): 11830 | Specific Binding (tau [3]; [13]): 7177 | Total Binding (tau [3]; [13]): 19008 | % of specific binding (tau [3]; [14]): 68% | NSP Binding (tau [3]; [14]): 6390 | Specific Binding (tau [3]; [14]): 13566 | Total Binding (tau [3]; [14]): 19956 | % of specific binding (tau [3]; [15]): 18% | NSP Binding (tau [3]; [15]): 14824 | Specific Binding (tau [3]; [15]): 3344 | Total Binding (tau [3]; [15]): 18167 | % of specific binding (tau [3]; [16]): 69% | NSP Binding (tau [3]; [16]): 6755 | Specific Binding (tau [3]; [16]): 15381 | Total Binding (tau [3]; [16]): 22136 | % of specific binding (tau [3]; [17]): 28% | NSP Binding (tau [3]; [17]): 13363 | Specific Binding (tau [3]; [17]): 5076 | Total Binding (tau [3]; [17]): 18439 | % of specific binding (tau [3]; [18]): 59% | NSP Binding (tau [3]; [18]): 6886 | Specific Binding (tau [3]; [18]): 9948 | Total Binding (tau [3]; [18]): 16834 | % of specific binding (tau [3]; [19]): 39% | NSP Binding (tau [3]; [19]): 13589 | Specific Binding (tau [3]; [19]): 8683 | Total Binding (tau [3]; [19]): 22271 | % of specific binding (tau [3]; [20]): 59% | NSP Binding (tau [3]; [20]): 6673 | Specific Binding (tau [3]; [20]): 9437 | Total Binding (tau [3]; [20]): 16110 | % of specific binding (tau [3]; [21]): 47% | NSP Binding (tau [3]; [21]): 10872 | Specific Binding (tau [3]; [21]): 9821 | Total Binding (tau [3]; [21]): 20693 | % of specific binding (tau [3]; [22]): 38% | NSP Binding (tau [3]; [22]): 6733 | Specific Binding (tau [3]; [22]): 4207 | Total Binding (tau [3]; [22]): 10939 | % of specific binding (tau [3]; [23]): 38% | NSP Binding (tau [3]; [23]): 14792 | Specific Binding (tau [3]; [23]): 8959 | Total Binding (tau [3]; [23]): 23751 | % of specific binding (tau [3]; [24]): 48% | NSP Binding (tau [3]; [24]): 7079 | Specific Binding (tau [3]; [24]): 6431 | Total Binding (tau [3]; [24]): 13509 | % of specific binding (tau [3]; [25]): 29% | NSP Binding (tau [3]; [25]): 13574 | Specific Binding (tau [3]; [25]): 5447 | Total Binding (tau [3]; [25]): 19021 | % of specific binding (tau [3]; [26]): 37% | NSP Binding (tau [3]; [26]): 6903 | Specific Binding (tau [3]; [26]): 3972 | Total Binding (tau [3]; [26]): 10875 | % of specific binding (tau [3]; [27]): 34% | NSP Binding (tau [3]; [27]): 12673 | Specific Binding (tau [3]; [27]): 6479 | Total Binding (tau [3]; [27]): 19153 | % of specific binding (tau [3]; [28]): 36% | NSP Binding (tau [3]; [28]): 6717 | Specific Binding (tau [3]; [28]): 3813 | Total Binding (tau [3]; [28]): 10529

[18F]c1ccc(-c2ccc3c(c2)[nH]c2ccncc23)cn1 [^18F-T807, 7-(6-[^18F]fluoropyridin-3yl)-5H-pyrido(4,3-b)indole]
% of specific binding (tau [4]; AD1, Basal ganglia): 24% | NSP Binding (tau [4]; AD1, Basal ganglia): 1895 | Specific Binding (tau [4]; AD1, Basal ganglia): 599 | Total Binding (tau [4]; AD1, Basal ganglia): 2495 | % of specific binding (tau [4]; AD1, Frontal cortex): 41% | NSP Binding (tau [4]; AD1, Frontal cortex): 2028 | Specific Binding (tau [4]; AD1, Frontal cortex): 1388 | Total Binding (tau [4]; AD1, Frontal cortex): 3416 | % of specific binding (tau [4]; AD1, Insula): 33% | NSP Binding (tau [4]; AD1, Insula): 1851 | Specific Binding (tau [4]; AD1, Insula): 893 | Total Binding (tau [4]; AD1, Insula): 2744 | % of specific binding (tau [4]; AD1, Temporal cortex): 28% | NSP Binding (tau [4]; AD1, Temporal cortex): 2018 | Specific Binding (tau [4]; AD1, Temporal cortex): 784 | Total Binding (tau [4]; AD1, Temporal cortex): 2802 | % of specific binding (tau [4]; AD2, Basal ganglia): 25% | NSP Binding (tau [4]; AD2, Basal ganglia): 1713 | Specific Binding (tau [4]; AD2, Basal ganglia): 567 | Total Binding (tau [4]; AD2, Basal ganglia): 2280 | % of specific binding (tau [4]; AD2, Frontal cortex): 24% | NSP Binding (tau [4]; AD2, Frontal cortex): 1901 | Specific Binding (tau [4]; AD2, Frontal cortex): 586 | Total Binding (tau [4]; AD2, Frontal cortex): 2488 | Total Binding (tau [4]; AD2, Insula): 2469 | % of specific binding (tau [4]; AD2, Temporal cortex): 46% | NSP Binding (tau [4]; AD2, Temporal cortex): 1801 | Specific Binding (tau [4]; AD2, Temporal cortex): 1526 | Total Binding (tau [4]; AD2, Temporal cortex): 3327 | % of specific binding (tau [4]; AD3, Basal ganglia): 31% | NSP Binding (tau [4]; AD3, Basal ganglia): 1639 | Specific Binding (tau [4]; AD3, Basal ganglia): 733 | Total Binding (tau [4]; AD3, Basal ganglia): 2372 | % of specific binding (tau [4]; AD3, Frontal cortex): 40% | NSP Binding (tau [4]; AD3, Frontal cortex): 1916 | Specific Binding (tau [4]; AD3, Frontal cortex): 1296 | Total Binding (tau [4]; AD3, Frontal cortex): 3212 | % of specific binding (tau [4]; AD3, Insula): 22% | NSP Binding (tau [4]; AD3, Insula): 1836 | Specific Binding (tau [4]; AD3, Insula): 509 | Total Binding (tau [4]; AD3, Insula): 2346 | % of specific binding (tau [4]; AD3, Temporal cortex): 16% | NSP Binding (tau [4]; AD3, Temporal cortex): 1975 | Specific Binding (tau [4]; AD3, Temporal cortex): 374 | Total Binding (tau [4]; AD3, Temporal cortex): 2349
